Source: paper PMC6199744, “Development of Chemical Proteomics for the Folateome and Analysis of the Kinetoplastid Folateome” (ACS Infectious Diseases, 2018)
Read-outs that look alike come from different tables or passages of the source.

Assays:
Type in all cases: binding
[1] = biological target: T1, HeLa cell extract proteins (Homo sapiens, UniProt P61457)
T1 construct: endogenous in cells; host or cells: HeLa cell extract
T1 sequence (P61457 1-104): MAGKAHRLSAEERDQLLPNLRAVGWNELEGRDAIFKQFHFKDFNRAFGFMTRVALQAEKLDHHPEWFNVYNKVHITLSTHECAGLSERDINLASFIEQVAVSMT

[2] = biological target: T2, HeLa cell extract proteins (Homo sapiens, UniProt P07339)
T2 construct: endogenous in cells; host or cells: HeLa cell extract

[3] = biological target: T3, HeLa cell extract proteins (Homo sapiens, UniProt P56192)
T3 construct: endogenous in cells; host or cells: HeLa cell extract
T3 sequence (P56192 1-900): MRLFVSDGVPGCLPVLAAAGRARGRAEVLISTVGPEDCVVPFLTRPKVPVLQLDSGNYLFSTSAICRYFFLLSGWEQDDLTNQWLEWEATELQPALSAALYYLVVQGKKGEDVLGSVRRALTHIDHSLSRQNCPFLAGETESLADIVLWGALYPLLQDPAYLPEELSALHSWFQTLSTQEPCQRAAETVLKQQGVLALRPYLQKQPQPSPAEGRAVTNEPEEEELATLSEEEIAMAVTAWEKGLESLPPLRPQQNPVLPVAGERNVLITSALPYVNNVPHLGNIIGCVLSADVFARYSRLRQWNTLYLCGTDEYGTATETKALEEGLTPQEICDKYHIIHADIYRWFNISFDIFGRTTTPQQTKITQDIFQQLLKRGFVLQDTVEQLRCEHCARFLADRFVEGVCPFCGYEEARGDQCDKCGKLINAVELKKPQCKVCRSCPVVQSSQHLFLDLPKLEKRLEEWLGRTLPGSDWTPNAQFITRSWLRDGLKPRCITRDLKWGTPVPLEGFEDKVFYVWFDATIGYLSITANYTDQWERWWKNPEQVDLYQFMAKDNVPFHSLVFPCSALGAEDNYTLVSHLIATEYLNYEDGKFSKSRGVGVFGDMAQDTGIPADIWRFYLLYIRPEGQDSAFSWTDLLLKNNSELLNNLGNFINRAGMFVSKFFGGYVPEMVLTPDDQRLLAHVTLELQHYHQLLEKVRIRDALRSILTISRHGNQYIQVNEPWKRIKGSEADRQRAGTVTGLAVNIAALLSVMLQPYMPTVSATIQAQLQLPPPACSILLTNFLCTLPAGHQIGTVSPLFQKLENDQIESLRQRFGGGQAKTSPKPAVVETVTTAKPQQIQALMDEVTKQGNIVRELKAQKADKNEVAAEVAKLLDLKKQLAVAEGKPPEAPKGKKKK

[4] = biological target: T4, HeLa cell extract proteins (Homo sapiens, UniProt P37837)
T4 construct: endogenous in cells; host or cells: HeLa cell extract
T4 sequence (P37837 1-337): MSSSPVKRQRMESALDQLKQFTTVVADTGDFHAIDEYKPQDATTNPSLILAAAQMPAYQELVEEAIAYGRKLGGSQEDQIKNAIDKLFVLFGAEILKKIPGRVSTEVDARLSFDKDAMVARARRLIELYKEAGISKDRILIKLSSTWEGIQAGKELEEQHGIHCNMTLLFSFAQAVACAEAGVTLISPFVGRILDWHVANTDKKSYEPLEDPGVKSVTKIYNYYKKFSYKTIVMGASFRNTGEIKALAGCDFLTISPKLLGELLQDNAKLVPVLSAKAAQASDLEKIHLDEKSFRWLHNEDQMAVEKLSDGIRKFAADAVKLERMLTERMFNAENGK

[5] = biological target: T5, HeLa cell extract proteins (Homo sapiens, UniProt P12004)
T5 construct: endogenous in cells; host or cells: HeLa cell extract

[6] = biological target: T6, HeLa cell extract proteins (Homo sapiens, UniProt P49721)
T6 construct: endogenous in cells; host or cells: HeLa cell extract

[7] = biological target: T7, HeLa cell extract proteins (Homo sapiens, UniProt Q00325)
T7 construct: endogenous in cells; host or cells: HeLa cell extract
T7 sequence (Q00325 50-362): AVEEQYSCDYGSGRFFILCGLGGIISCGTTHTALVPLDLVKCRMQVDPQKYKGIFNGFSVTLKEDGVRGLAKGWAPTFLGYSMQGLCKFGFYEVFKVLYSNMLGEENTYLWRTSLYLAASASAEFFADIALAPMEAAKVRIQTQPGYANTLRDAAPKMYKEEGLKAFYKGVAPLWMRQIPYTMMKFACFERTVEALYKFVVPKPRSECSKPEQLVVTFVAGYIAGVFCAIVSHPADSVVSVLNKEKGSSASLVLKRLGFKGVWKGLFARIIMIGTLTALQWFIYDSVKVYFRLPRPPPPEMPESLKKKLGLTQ

[8] = biological target: T8, HeLa cell extract proteins (Homo sapiens, UniProt Q53G59)
T8 construct: endogenous in cells; host or cells: HeLa cell extract
T8 sequence (Q53G59 1-568): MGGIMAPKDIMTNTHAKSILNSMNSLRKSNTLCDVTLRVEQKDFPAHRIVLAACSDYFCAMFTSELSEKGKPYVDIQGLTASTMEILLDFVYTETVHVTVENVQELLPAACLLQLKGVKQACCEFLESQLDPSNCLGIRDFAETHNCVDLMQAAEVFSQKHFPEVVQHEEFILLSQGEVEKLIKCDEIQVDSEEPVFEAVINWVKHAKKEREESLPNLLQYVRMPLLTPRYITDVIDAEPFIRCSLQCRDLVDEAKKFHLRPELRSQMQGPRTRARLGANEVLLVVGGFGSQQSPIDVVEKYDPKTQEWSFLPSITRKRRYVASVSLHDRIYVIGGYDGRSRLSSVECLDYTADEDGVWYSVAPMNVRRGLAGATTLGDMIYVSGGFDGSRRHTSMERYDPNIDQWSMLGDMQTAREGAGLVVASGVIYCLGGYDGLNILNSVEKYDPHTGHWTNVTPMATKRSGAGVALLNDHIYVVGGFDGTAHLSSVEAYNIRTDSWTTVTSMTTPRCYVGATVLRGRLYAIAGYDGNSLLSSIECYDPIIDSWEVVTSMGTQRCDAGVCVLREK

[9] = biological target: T9, HeLa cell extract proteins (Homo sapiens, UniProt P62191)
T9 construct: endogenous in cells; host or cells: HeLa cell extract

[10] = biological target: T10, HeLa cell extract proteins (Homo sapiens, UniProt O75306)
T10 construct: endogenous in cells; host or cells: HeLa cell extract

[11] = biological target: T11, HeLa cell extract proteins (Homo sapiens, UniProt P04792)
T11 construct: endogenous in cells; host or cells: HeLa cell extract

[12] = HeLa, protein KLHL12 (KELCH-LIKE PROTEIN 12)
[13] = HeLa, protein TALDO1 (TRANSALDOLASE.)

T2 sequence (P07339 65-412): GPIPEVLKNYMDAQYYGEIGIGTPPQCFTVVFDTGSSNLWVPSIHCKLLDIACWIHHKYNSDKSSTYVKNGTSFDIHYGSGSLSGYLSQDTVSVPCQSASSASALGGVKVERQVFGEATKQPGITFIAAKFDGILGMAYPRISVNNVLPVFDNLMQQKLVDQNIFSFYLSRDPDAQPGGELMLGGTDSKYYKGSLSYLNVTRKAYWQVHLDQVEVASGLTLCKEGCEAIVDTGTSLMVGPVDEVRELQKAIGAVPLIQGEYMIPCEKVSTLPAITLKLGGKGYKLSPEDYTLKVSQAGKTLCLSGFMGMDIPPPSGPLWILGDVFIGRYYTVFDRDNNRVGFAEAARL
T6 sequence (P49721 whole entry): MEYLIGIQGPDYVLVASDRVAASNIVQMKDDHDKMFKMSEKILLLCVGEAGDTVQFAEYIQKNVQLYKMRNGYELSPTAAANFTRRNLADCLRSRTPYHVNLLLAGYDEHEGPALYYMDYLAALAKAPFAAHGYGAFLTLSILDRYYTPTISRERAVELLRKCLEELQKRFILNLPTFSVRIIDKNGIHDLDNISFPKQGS
T11 sequence (P04792 whole entry): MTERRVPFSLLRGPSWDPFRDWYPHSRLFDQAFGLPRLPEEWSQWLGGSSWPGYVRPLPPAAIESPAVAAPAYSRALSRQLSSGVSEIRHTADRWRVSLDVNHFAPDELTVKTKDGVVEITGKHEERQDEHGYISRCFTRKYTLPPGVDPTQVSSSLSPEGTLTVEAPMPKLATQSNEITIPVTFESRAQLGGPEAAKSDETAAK
T9 sequence (P62191 whole entry): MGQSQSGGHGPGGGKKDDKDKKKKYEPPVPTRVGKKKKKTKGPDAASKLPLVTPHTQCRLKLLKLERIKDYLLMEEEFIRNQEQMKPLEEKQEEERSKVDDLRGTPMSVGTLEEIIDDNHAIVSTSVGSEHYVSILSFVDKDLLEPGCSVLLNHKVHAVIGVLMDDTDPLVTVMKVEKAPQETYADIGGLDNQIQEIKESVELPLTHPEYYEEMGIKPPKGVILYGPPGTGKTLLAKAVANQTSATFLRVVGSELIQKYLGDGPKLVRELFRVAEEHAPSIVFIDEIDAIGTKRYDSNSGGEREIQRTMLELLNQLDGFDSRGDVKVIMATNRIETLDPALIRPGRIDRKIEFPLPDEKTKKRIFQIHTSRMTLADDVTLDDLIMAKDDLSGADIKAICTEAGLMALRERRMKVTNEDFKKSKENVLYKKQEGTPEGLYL
T10 sequence (O75306 34-463): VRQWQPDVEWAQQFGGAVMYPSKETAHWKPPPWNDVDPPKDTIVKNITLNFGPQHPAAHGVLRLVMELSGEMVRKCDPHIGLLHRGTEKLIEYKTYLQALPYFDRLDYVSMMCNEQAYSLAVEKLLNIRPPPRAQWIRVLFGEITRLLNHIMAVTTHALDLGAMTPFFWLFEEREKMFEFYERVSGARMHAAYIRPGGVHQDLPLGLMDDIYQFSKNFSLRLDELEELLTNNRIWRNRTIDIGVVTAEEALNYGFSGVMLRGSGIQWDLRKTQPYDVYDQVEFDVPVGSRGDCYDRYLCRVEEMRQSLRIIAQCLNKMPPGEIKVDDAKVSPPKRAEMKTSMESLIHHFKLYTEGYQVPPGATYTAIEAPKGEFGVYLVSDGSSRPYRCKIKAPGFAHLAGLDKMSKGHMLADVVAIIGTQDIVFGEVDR
T5 sequence (P12004 whole entry): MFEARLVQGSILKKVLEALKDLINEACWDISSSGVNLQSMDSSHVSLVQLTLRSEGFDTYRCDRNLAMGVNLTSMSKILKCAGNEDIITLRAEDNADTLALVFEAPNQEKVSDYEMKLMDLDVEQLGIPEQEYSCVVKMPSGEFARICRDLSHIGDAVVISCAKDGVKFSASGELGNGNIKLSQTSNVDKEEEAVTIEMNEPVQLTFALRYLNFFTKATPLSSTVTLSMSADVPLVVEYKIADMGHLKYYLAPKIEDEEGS

Compound	fold changes relative to vehicle control ([1]; HeLa, captured protein PCBD1)	fold changes relative to vehicle control ([2]; HeLa, captured protein CTSD)	fold changes relative to vehicle control ([3]; HeLa, captured protein MARS)	fold changes relative to vehicle control ([4]; protein TALDO1, HeLa)	fold changes relative to vehicle control ([5]; HeLa, captured protein PCNA)	fold changes relative to vehicle control ([6]; HeLa, captured protein PSMB2)	fold changes relative to vehicle control ([7]; HeLa, protein SLC25A3)	fold changes relative to vehicle control [8, 12]	fold changes relative to vehicle control ([9]; HeLa, protein PSMC1)	fold changes relative to vehicle control ([10]; protein NDUFS2, HeLa)	fold changes relative to vehicle control ([11]; HeLa, protein HSPB1)	fold changes relative to vehicle control ([1]; captured protein PCBD1, HeLa)	fold changes relative to vehicle control ([2]; protein CTSD, HeLa)	fold changes relative to vehicle control ([3]; captured protein MARS, HeLa)	fold changes relative to vehicle control [4, 13]	fold changes relative to vehicle control ([5]; protein PCNA, HeLa)	fold changes relative to vehicle control ([6]; HeLa, protein PSMB2)	fold changes relative to vehicle control ([8]; protein KLHL12, HeLa)	fold changes relative to vehicle control ([9]; protein PSMC1, HeLa)	fold changes relative to vehicle control ([10]; HeLa, protein NDUFS2)	also measured
Nc1nc2c(c(=O)[nH]1)N(C=O)C(CNc1ccc(C(=O)N[C@@H](CCC(=O)O)C(=O)O)cc1)CN2 (some centres unmarked) [LEU, leucovorin]	1.4	0.96	0.92	0.88	1.25	1.2	0.98	1.36	1	0.86	1.01										
NCCCNc1ccc(C(=O)NC(CCC(=O)O)C(=O)O)cc1 (centres unmarked) [compound 7]	1.48	0.96	0.94	0.92	1.02	1.07	1.11	1.31	0.85	1.13	0.94										
CCCCCCOc1cccc(Cc2cnc(N)nc2N)c1 [compound 2]							0.96					0.96	1.26	1.07	2.2 fold	1.65	1.24	1.3	1.42	1.12	fold changes relative to vehicle control ([11]; protein HSPB1, HeLa): 1.38
CCCCCCOc1ccc(Cc2cnc(N)nc2N)cc1 [compound 1]							0.98					1.01	1.14	0.74	1.32 fold	1.18	1.03	1.15	0.98	1.15	fold changes relative to vehicle control ([11]; protein HSPB1, HeLa): 1.09
Nc1nc2cccc(-c3ccccc3)c2n1Cc1ccc(Cl)c(Cl)c1 [compound 3]							1					1.29	0.95	0.93	0.83 fold	0.77	1.07	0.97	1	1.3	fold changes relative to vehicle control ([11]; protein HSPB1, HeLa): 0.88
NCCOCCOCC(=O)Nc1nc2ncc(CNc3ccc(C(=O)NC(CCC(=O)O)C(=O)O)cc3)nc2c(=O)[nH]1 (centres unmarked) [compound 6]	1.58	1.12	1.01	1.22	1.47	1.03	1.04	1.05	0.95	1.12	1.07										
Nc1nc2[nH]cc(CCc3ccc(C(=O)N[C@@H](CCC(=O)O)C(=O)O)cc3)c2c(=O)[nH]1 [PTX, pemetrexed]																					fold changes relative to vehicle control [1]: 1.68; fold changes relative to vehicle control [2]: 1; fold changes relative to vehicle control [3]: 0.93; fold changes relative to vehicle control [4]: 1.04; fold changes relative to vehicle control [5]: 1.29; fold changes relative to vehicle control [6]: 1.13; fold changes relative to vehicle control [7]: 0.98; fold changes relative to vehicle control [8]: 1.07; fold changes relative to vehicle control [9]: 0.92; fold changes relative to vehicle control [10]: 0.92; fold changes relative to vehicle control [11]: 1
